Measured values taken from patent US9795602B2, “Polycyclic-carbamoylpyridone compounds and their pharmaceutical use” (Gilead Sciences, Inc., priority 2014, dated 2017).

Legend:
PXR (NR1I2) = PXR (NR1I2) (Homo sapiens (Human), UniProt O75469); assay: Human PXR activation assay (luciferase reporter, DPX2 cells); type: cell-based; conditions: human; 15 uM; DPX2 cells; % Emax relative to rifampicin, adjusted for DMSO background; read-out: PXR % inh at 15 uM (adjusted)
Method: Luciferase Reporter Gene Assay.
A stably transformed tumor cell line (DPX2) was plated on 96-well microtiter plates. […]. The number of viable cells was determined and the reporter gene activity was assessed. […]

[1] = Pharmacokinetics after intravenous infusion to male SD rats; type: in vivo; conditions: Sprague-Dawley, plasma, rat, IV infusion 0.5 mg/kg; for Vd: read-out: Vss
Method: (§1) Pharmacokinetic analysis was performed on compounds 25b and 39 following intravenous or oral administration to rats.
(§2) The test compounds were formulated in 5% Ethanol, 55% PEG 300, and 40% water at 0.1 mg/mL for IV infusion and for oral dosing.
(§3) Each dosing group consisted of 3 male, Sprague-Dawley rats. At dosing, the animals weighed an average of 0.25 kg. The animals were fasted overnight prior to dose administration and up to 4 hr after dosing.
(§4) For the IV infusion group, the test article was administered by intravenous infusion over 30 min. The rate of infusion was adjusted according to the body weight of each animal to deliver a dose of 0.5 mg/kg. For the oral dosing group, the test article was administered by oral gavage at 5 mL/kg for a dose of 0.5 mg/kg.
For pharmacokinetic analysis of intravenously administered compounds, serial venous blood samples (approximately 0.3 mL each) were taken from each animal at 0, 0.250, 0.483, 0.583, 0.750, 1.50, 3.00, 6.00, 8.00, 12.0, 24.0, 48 and 72 hours after dosing. The blood samples were collected into Vacutainer™ tubes containing EDTA-K2 as the anti-coagulant and were immediately placed on wet ice pending centrifugation for plasma. An LC/MS/MS method was used to measure the concentration of the test compound in plasma. An aliquot of 50 μL of each plasma sample was added to a clean 96 well plate, and 200 μL of cold acetonitrile/internal standard solution (ACN)/(ISTD) was added. After protein precipitation, an aliquot of 110 μL of the supernatant was transferred to a clean 96-well plate and diluted with 300 μL of water. An aliquot of 10 μL of the above solution was injected into a ABSciex API-4000 triple quadrupole LC/MS/MS system utilizing a HyPurity C18 HPLC column (30×2.1 mm, 3μ), from Thermo-Hypersil (Part #22103-032130). An Agilent 1200 series binary pump (P/N G1312A Bin Pump) was used for elution and separation, and an HTS Pal autosampler (LEAP Technologies, Carrboro, N.C.) was used for sample injection. A API-4000 triple quadrupole mass spectrometer was utilized in multiple reaction monitoring mode (Applied Biosystems, Foster City, Calif.). Liquid chromatography was performed using two mobile phases: mobile phase A contained 0.1% formic acid and 1% isopropylamine in aqueous solution, and mobile phase B contained […]. Non-compartmental pharmacokinetic analysis was performed on the plasma concentration-time data. The resulting data are shown in the first three columns of Table 2. In Table 2, Cl refers to clearance, which characterizes the rate at which drug is removed from plasma. The lower the clearance of a drug is, the longer the elimination half-life is in the body. Vss refers to the steady state volume of distribution and indicates how well a drug is distributed into the tissues. The larger the Vss is, the longer the elimination half-life is in the body. MRT refers to mean residence time, which is a measure of the average time molecules exist in the body.

wild-type HIV-1 = assay: Antiviral assay in MT-2 cells, wild-type HIV-1; type: cell-based; conditions: Human immunodeficiency virus 1, 120 h; MT2 cells, wild-type HIV-1, 5 days; read-out: wt
Method: For the antiviral assay utilizing MT-2 cells, 50 μL of 2× test concentration of 3-fold serially diluted compound in culture medium with 10% FBS was added to each well of a 96-well plate (9 concentrations) in triplicate. MT-2 cells were infected with wild-type or mutant variants of HIV-1 for 3 hours using a volume of viral inoculum determined to produce 90% cell killing. Fifty microliters of infected cell suspension in culture medium with 10% FBS (˜1.5×10^4 cells) was then added to each well containing 50 μL of serially diluted compound. The plates with HIV-infected cultures were then incubated at 37° C. for 5 days in the presence of the tested compounds. After 5 days of incubation, 100 μL of CellTiter-Glo™ Reagent (catalog # G7571, Promega Biosciences, Inc., Madison, Wis.) was added to each well. Cell lysis was carried out by incubating at room temperature for 10 min followed by a chemiluminescence read-out.
The chemiluminescence readout from the 10-point antiviral dose response was analyzed directly by curve fitting with equation (I) to determine the EC50.
where y=Cell Survival, M=maximum cell survival enabled by drug protection, H=baseline cell survival without drug protection, n=Hill coefficient of the antiviral dose response, m=Hill coefficient of the cytotoxicity dose response, and [I]=inhibitor concentration.
EC50 values (mean±standard deviation) were calculated from at least three independent experiments performed in triplicate. The fold-change in antiviral activity of tested compounds was calculated as a ratio of the mean EC50 for each mutant virus divided by the mean EC50 of the control WT virus.

[2] = Pharmacokinetics after oral administration to male SD rats; type: in vivo; conditions: Sprague-Dawley, plasma, rat, oral gavage 0.5 mg/kg, solution, read-out: % F (solution)
Method: as §1, §2, §3, §4
For pharmacokinetic analysis of orally administered compounds, serial venous blood samples (approximately 0.3 mL each) were taken from each animal at time points of 0, 0.25, 0.50, 1.0, 2.0, 4.0, 6.0, 8.0, 12.0 24.0, 48.0 and 72 hours after dosing. Blood samples were collected, prepared and analyzed in a similar way to the intravenous studies described above. Non-compartmental pharmacokinetic analysis was performed on the plasma concentration-time data. In Table 2, F (%) refers to oral bioavailability.

Chain of PXR (NR1I2) (O75469 whole entry): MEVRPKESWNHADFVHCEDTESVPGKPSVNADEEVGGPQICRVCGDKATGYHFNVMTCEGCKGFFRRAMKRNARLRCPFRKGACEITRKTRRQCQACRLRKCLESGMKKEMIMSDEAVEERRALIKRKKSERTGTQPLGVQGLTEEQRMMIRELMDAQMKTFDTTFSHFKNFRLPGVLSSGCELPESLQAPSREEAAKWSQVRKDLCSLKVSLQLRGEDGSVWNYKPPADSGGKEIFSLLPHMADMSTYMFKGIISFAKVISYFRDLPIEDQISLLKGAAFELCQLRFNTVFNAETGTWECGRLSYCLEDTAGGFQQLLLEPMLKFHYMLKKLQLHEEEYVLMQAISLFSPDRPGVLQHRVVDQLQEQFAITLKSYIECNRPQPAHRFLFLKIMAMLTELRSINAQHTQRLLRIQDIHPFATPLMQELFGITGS

## CCN1C(=O)c2c(O)c(=O)c(C(=O)NCc3ccc(F)c(Cl)c3F)cn2[C@H]2CCO[C@H]21 [Compound 25b]
PXR (NR1I2)
  inhibition at 24 h, 15 µM: 13%
[1]
  MRT: 119 h
  clearance: 1.3 mL/h/kg
  Vd: 0.141 L/kg
wild-type HIV-1
  EC50: 1.4 nM
[2]
  bioavailability: 39%

## CCN1C(=O)c2c(O)c(=O)c(C(=O)NCc3ccc(F)c(Cl)c3F)cn2[C@H]2CCOC[C@H]21 [Compound 39]
PXR (NR1I2)
  inhibition at 24 h, 15 µM: 5%
[1]
  MRT: 105 h
  clearance: 2.3 mL/h/kg
  Vd: 0.212 L/kg
wild-type HIV-1
  EC50: 0.9 nM
[2]
  bioavailability: 15%
